Source: paper PMC3633088 (Chemistry & biology, 2013)
Each block holds one molecule with its values, some of them ahead of it.

Legend:
[1] = biological target: T1, hASNase3, uncleaved form (human asparaginase 3; hASRGL1/ALP; CRASH) (Homo sapiens, UniProt Q7L266); assay: autocleavage, SDS-PAGE band quantification; type: biochemical; settings: accelerates autoproteolysis; 5 mM glycine, pH 7.5, 25 °C, 42 hours
T1 sequence (Q7L266 1-308): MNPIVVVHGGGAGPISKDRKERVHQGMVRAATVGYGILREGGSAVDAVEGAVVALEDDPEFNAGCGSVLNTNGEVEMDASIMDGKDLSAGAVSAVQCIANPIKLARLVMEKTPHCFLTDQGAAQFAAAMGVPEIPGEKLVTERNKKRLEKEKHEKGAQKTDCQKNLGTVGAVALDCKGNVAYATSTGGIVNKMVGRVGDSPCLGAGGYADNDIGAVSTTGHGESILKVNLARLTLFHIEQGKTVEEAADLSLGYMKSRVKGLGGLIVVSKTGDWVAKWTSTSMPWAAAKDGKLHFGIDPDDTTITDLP

[2] = biological target: T2, hASNase3, cleaved (active) form, alpha and beta chains (Homo sapiens, UniProt Q7L266); assay: asparaginase activity assay; type: biochemical; settings: 10 or 50 mM glycine; cleaved enzyme
T2 sequence (Q7L266 1-167): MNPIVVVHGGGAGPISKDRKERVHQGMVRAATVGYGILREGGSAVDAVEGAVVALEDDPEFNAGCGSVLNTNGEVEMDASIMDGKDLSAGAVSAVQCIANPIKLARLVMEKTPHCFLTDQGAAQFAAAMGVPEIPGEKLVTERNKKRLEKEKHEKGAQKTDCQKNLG
T2 sequence (Q7L266 168-308): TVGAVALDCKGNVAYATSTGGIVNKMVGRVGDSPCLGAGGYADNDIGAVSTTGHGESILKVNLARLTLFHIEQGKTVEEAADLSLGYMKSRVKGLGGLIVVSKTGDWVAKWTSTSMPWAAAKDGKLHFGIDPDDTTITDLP

[3] = biological target: T2, hASNase3, cleaved (active) form, alpha and beta chains; assay: X-ray crystal structure, […] Å; type: binding; settings: crystal soaked in 3 M glycine, pH 4.9, <1 minute; substrate site (Arg196, Asp199)
[4] = biological target: T2, hASNase3, cleaved (active) form, alpha and beta chains; assay: asparaginase activity assay; type: biochemical; settings: up to 50 mM; cleaved enzyme
[5] = biological target: T2, hASNase3, cleaved (active) form, alpha and beta chains; assay: asparaginase activity assay; type: biochemical; settings: turnover by cleaved enzyme only; data not shown
crystal structure = biological target: the molecule itself; assay: crystal structure
hASNase3 α-chain = biological target: T3, hASNase3 α-chain (human, UniProt Q7L266 1-167); assay: crystal structure
T3 sequence (looked up): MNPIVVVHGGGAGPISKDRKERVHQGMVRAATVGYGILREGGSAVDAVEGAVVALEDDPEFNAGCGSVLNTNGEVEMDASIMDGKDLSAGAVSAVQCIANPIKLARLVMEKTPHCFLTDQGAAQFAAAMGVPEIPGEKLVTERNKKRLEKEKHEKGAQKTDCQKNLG

% cleavage at 5 mM [1]: 40%
% reduction of asparaginase activity at 10 or 50 mM [2]: ~ 50%
Molecule: NCC(=O)O [glycine]
X-ray crystal structure, 1.91 Å [3]: In this post-cleavage state of hASNase3, glycine bound at the active site

Molecule: N[C@@H](CO)C(=O)O [serine]
inhibition, concentration-dependent [4]: glycolate, glyoxylate, oxalate, L-aspartate, and serine showed a concentration-dependent effect

Molecule: NC(=O)C[C@H](N)C(=O)O [asparagine]
asparaginase activity assay [5]: The measured asparaginase activity of hASNase3 was proportional to the amount of cleaved enzyme

Molecule: O=C(O)C(=O)O [oxalate]
inhibition, concentration-dependent [4]: glycolate, glyoxylate, oxalate, L-aspartate, and serine showed a concentration-dependent effect

Molecule: O=CC(=O)O [glyoxylate]
inhibition, concentration-dependent [4]: glycolate, glyoxylate, oxalate, L-aspartate, and serine showed a concentration-dependent effect

Molecule: O=C(O)CO [glycolate]
inhibition, concentration-dependent [4]: glycolate, glyoxylate, oxalate, L-aspartate, and serine showed a concentration-dependent effect

Molecule: N[C@@H](CC(=O)O)C(=O)O [L-aspartate]
inhibition, concentration-dependent [4]: glycolate, glyoxylate, oxalate, L-aspartate, and serine showed a concentration-dependent effect

B1: Human asparaginase 3 (hASNase3), cleaved form (α- and β-chains) (complex)
chain 1: MNPIVVVHGGGAGPISKDRKERVHQGMVRAATVGYGILREGGSAVDAVEGAVVALEDDPEFNAGCGSVLNTNGEVEMDASIMDGKDLSAGAVSAVQCIANPIKLARLVMEKTPHCFLTDQGAAQFAAAMGVPEIPGEKLVTERNKKRLEKEKHEKGAQKTDCQKNLG
chain 2: TVGAVALDCKGNVAYATSTGGIVNKMVGRVGDSPCLGAGGYADNDIGAVSTTGHGESILKVNLARLTLFHIEQGKTVEEAADLSLGYMKSRVKGLGGLIVVSKTGDWVAKWTSTSMPWAAAKDGKLHFGIDPDDTTITDLP
binding result (crystal structure): binds

binding result (hASNase3 α-chain): binds
B2: hASNase3 β-chain (domain or fragment, human, UniProt Q7L266 168-308, looked up)
chain: TVGAVALDCKGNVAYATSTGGIVNKMVGRVGDSPCLGAGGYADNDIGAVSTTGHGESILKVNLARLTLFHIEQGKTVEEAADLSLGYMKSRVKGLGGLIVVSKTGDWVAKWTSTSMPWAAAKDGKLHFGIDPDDTTITDLP
